Test results as given in patent publication US8202879B2, “Quinazoline derivatives having tyrosine kinase inhibitory activity” (Shionogi & Co., Ltd., priority 2005, dated 2012).
Where a name gives a salt, the structure may show the parent alone. Read-outs that look alike come from different tables or passages of the source.

How the values were obtained:
[1] = molecular target: T1, HER2 (Homo sapiens, UniProt P04626); assay: Enzyme inhibitory activity on HER2 (time resolution fluorescence, biotinylated poly-Glu-Tyr substrate); format: biochemical
T1 construct: purchased Carna Biosciences, Inc; host or cells: insect cell expression system
T1 sequence (P04626 23-1255): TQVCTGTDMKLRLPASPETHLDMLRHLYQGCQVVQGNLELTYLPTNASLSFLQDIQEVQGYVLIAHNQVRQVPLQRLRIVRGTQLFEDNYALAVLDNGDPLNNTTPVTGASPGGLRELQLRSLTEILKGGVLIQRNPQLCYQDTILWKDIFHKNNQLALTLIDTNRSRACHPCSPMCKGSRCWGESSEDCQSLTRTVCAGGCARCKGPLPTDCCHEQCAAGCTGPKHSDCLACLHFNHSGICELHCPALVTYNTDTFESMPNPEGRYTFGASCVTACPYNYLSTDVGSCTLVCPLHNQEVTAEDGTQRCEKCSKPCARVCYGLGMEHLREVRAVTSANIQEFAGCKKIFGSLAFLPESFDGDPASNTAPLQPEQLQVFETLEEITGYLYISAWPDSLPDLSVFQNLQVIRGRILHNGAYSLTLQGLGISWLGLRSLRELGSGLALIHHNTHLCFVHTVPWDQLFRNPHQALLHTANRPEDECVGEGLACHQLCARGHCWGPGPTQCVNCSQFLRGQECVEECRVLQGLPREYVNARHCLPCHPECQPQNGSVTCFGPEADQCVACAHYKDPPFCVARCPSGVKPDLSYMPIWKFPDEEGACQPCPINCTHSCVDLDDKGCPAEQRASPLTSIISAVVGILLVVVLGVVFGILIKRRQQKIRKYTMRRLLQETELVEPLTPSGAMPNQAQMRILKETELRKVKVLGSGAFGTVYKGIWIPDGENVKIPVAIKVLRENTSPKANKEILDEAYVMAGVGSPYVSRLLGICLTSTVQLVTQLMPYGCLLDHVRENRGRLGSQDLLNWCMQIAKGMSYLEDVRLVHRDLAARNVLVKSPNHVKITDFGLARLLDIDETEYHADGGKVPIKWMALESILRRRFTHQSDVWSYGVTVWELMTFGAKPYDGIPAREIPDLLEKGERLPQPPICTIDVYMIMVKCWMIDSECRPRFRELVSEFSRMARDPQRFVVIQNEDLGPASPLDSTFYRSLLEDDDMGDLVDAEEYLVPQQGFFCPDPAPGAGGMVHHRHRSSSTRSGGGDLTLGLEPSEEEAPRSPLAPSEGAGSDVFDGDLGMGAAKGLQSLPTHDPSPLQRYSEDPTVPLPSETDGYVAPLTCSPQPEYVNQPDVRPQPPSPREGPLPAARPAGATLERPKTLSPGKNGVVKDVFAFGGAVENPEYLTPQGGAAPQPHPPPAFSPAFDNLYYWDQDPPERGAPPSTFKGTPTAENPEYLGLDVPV
Method: (§1) Enzyme Inhibitory Activity of Test Compound on EGFR and HER2
(§2) EGFR and HER2 purified from an insect cell expression system, and a biotinylated substrate (synthetic peptide of glutamic acid:tyrosine=4:1) were added to a 384-well plate with ATP added thereto, and an enzyme reaction was performed at room temperature. After completion of the enzyme reaction, an anti-phosphorylated tyrosine antibody labeled with europium and streptavidin labeled with alphycocyanine were added, and a phosphorylated tyrosine residue was quantified by a time resolution fluorescence method.
(§3) A test compound was adjusted to 10 mM using DMSO.
(§4) Further, using 10% DMSO solution, a 1 mM solution was prepared, and this was regarded as a maximum concentration point.
(§5) As a dilution series, a 4-fold dilution series was prepared to a 10 stage.
(§6) As a buffer, TBS containing 10 mM MgCl2, 5 mM MnCl2, 0.2 mM Na3VO4, and 0.1% BSA was used.
(§7) As EGFR and HER2 enzymes, those purified from an insect cell expression system were purchased from Carna Biosciences, Inc.
HER2 kinase was adjusted to 1000 ng/ml using a buffer.
(§8) As a substrate, biotinylated poly-Glu-Tyr (4:1, manufactured by CISbio) was used. A concentration was adjusted to 3.125 μg/ml using the above buffer.
An ATP concentration on study of the HER2 enzyme was adjusted to 290 μM.
(§9) For preparing a detection reagent, TBS containing 30 mM EDTA, 0.8M KF and 0.1% BSA was used.
(§10) An anti-phosphorylated tyrosine antibody labeled with europium, PT-66K (CISbio) was adjusted to 195 ng/ml, and streptavidin labeled with alphycocyanine, SA-XL (CISbio) was adjusted to 5 μg/ml.
(§11) As an assay plate, a 384-well plate was used. Per one well, 1.1 μl of a test compound, 4 μl of a substrate solution, and 4 μl of an enzyme solution were added, and 2 μl of an ATP solution was added to initiate an enzyme reaction. The enzyme reaction was performed at room temperature for 60 minutes, and 10 μl of a detection reagent was added to complete the reaction. One hour after completion of the reaction, time resolution fluorescent measurement was performed.

[2] = tested on: BT-474; assay: In vitro cell proliferation inhibition, WST assay; format: cell-based, human; conditions: BT-474 cells, cultured for 3 days, read-out: BT-474 (nM) proliferation inhibitory activity (IC50 value)
Method: Test of In Vitro Cell Proliferation Inhibition of Test Compound
As a human-derived cancer cell strain, BT-474 was used. Cells were all cultured in a 37° C., 5% CO2 incubator in a medium in which 10% bovine fetal serum (ICN) and 50 units ml penicillin/60 μg/ml streptomycin solution (GIBCO) were added to Dulbecco's Modified Essential Medium (DMEM, Nacalai Tesque, Inc).

[3] = molecular target: T2, EGFR (Homo sapiens, UniProt P00533); assay: Enzyme inhibitory activity on EGFR (time resolution fluorescence, biotinylated poly-Glu-Tyr substrate); format: biochemical
T2 construct: purchased Carna Biosciences, Inc; host or cells: insect cell expression system
T2 sequence (P00533 25-1210): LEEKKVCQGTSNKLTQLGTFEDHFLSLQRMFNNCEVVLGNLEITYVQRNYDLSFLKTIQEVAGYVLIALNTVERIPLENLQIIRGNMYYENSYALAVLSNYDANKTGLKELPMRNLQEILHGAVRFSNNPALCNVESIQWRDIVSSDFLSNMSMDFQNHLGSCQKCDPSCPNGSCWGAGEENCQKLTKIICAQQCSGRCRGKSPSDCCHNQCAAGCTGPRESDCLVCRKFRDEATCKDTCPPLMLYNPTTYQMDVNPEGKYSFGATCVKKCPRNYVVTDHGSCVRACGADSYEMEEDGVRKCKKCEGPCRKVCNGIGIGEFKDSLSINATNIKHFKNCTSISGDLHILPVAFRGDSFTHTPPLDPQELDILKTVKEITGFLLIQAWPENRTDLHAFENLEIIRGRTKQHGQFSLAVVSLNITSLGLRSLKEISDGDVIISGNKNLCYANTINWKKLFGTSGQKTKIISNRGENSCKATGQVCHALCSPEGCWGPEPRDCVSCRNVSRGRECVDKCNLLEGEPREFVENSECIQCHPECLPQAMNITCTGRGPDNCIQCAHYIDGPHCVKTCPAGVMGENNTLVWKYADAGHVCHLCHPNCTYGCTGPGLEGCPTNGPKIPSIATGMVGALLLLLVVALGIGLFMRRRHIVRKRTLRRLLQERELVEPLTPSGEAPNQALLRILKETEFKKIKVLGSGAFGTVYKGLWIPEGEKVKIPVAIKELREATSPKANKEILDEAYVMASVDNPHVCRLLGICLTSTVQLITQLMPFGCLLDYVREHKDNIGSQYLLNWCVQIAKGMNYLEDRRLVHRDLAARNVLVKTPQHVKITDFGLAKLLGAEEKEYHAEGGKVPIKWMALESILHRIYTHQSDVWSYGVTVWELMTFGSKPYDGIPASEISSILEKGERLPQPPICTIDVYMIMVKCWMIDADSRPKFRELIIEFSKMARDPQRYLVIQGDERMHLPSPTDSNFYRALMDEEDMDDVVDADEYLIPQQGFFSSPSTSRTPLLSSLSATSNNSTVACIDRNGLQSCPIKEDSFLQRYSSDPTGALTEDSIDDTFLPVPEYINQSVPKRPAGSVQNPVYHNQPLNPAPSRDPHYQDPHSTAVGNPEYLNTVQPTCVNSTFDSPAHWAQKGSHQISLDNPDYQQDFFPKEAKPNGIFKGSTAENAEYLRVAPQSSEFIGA
Method: as §1, §2, §3, §4, §5, §6, §7
An EGFR enzyme solution was adjusted to 250 ng/ml using a buffer.
as §8
An ATP concentration on study of the EGFR enzyme was adjusted to 125 μM using the buffer.
as §9, §10, §11

[4] = enzyme reaction at room temperature for 60 minutes
[5] = HER2 purified from insect cell expression system, ATP solution 290 μM, room temperature, 60 minutes
[6] = EGFR purified from insect cell expression system, ATP solution 125 μM, room temperature, 60 minutes

Structure (SMILES) | IC50 [1, 4] [nM] | IC50 ([2]; Homo sapiens, BT-474, 72 h) [nM] | IC50 [3, 4] [nM] | IC50 [1, 5] [nM] | IC50 [2] [nM] | IC50 [3, 6] [nM]
CC#C/C(=N\OC[C@@H]1CNCCO1)c1ccc2ncnc(Nc3ccc(OCc4ccccn4)c(Cl)c3)c2c1 [VIII-168] | 9 | 44 | 8 |  |  | 
CC#C/C(=N\OC[C@@H]1CCCN1C)c1ccc2ncnc(Nc3ccc(OCc4cccc(F)c4)c(Cl)c3)c2c1 [VIII-75] |  |  |  | 34 | 22 | 50
CC#C/C(=N\OCCN(CC)CCOC)c1ccc2ncnc(Nc3ccc4c(cnn4Cc4cccc(F)c4)c3)c2c1 [VIII-192] | 14.2 | 24 | 6.2 |  |  | 
CC#C/C(=N\OC[C@@H]1C[C@H](O)CN1)c1ccc2ncnc(Nc3ccc4c(cnn4Cc4cccc(F)c4)c3)c2c1 [VIII-194] | 13 |  | 8.6 |  | 25 | 
CC#C/C(=N\OC[C@H]1CCCN1)c1ccc2ncnc(Nc3ccc(OCc4cccc(F)c4)c(Cl)c3)c2c1 [VIII-85] |  |  |  | 33 | 11 | 32
CC#C/C(=N\OCCNC)c1ccc2ncnc(Nc3ccc(COc4cccc(F)c4)c(Cl)c3)c2c1 [VIII-211] | 18 | 16 | 23 |  |  | 
CC#C/C(=N\OC[C@H]1CNC[C@@H](C)O1)c1ccc2ncnc(Nc3ccc(OCc4ccccn4)c(Cl)c3)c2c1 [VIII-177] | 5.8 | 79 | 7.3 |  |  | 
CC#C/C(=N\OCC1COCCN1)c1ccc2ncnc(Nc3ccc(S(=O)(=O)c4ccccc4)cc3)c2c1 (stereo not drawn) [VIII-219] | 20 | 45 | 26 |  |  | 
CC#C/C(=N\OCCN1CCN(C)CC1)c1ccc2ncnc(Nc3ccc(OCc4ccccn4)c(Cl)c3)c2c1 [VIII-164] | 7.6 | 31 | 7.3 |  |  | 
CC#C/C(=N\OCCNC1CC1)c1ccc2ncnc(Nc3ccc(OCc4cccc(F)c4)c(Cl)c3)c2c1 [VIII-46] |  | 12 |  | 104 |  | 82
CC#CC(=NOCC(C)N)c1ccc2ncnc(Nc3ccc(OCc4cccc(F)c4)c(Cl)c3)c2c1 (stereo not drawn) [VIII-40] |  |  |  | 19.2 | 9 | 9.3
CC#C/C(=N\OCCNC1CCN(S(C)(=O)=O)CC1)c1ccc2ncnc(Nc3ccc(OCc4ccccn4)c(Cl)c3)c2c1 [VIII-142] | 4.4 | 31 | 5.5 |  |  | 
CC#C/C(=N\OC[C@@H]1CNC[C@@H](C)O1)c1ccc2ncnc(Nc3ccc(OCc4cccc(F)c4)c(Cl)c3)c2c1 [VIII-110] |  |  |  | 35 | 21 | 29
CC#CC(=NOCC1CNCCN1)c1ccc2ncnc(Nc3ccc(OCc4cccc(F)c4)c(Cl)c3)c2c1 (stereo not drawn) [VIII-103] |  | 11 |  | 5.6 |  | 3.9
CC#C/C(=N\OCCNC[C@@H]1COC(=O)N1)c1ccc2ncnc(Nc3ccc4c(cnn4Cc4cccc(F)c4)c3)c2c1 [VIII-191] | 42 | 33 | 17 |  |  | 
CC#C/C(=N\OCCNCCNC(C)=O)c1ccc2ncnc(Nc3ccc(OCc4ccccn4)c(Cl)c3)c2c1 [VIII-134] | 7.4 | 14 | 7.1 |  |  | 
CC#CC(=NOCC1CNCCN1)c1ccc2ncnc(Nc3ccc4c(cnn4Cc4cccc(F)c4)c3)c2c1 (stereo not drawn) [VIII-198] | 4.6 | 10 | 3.6 |  |  | 
CNCCO/N=C(\C#CCOC)c1ccc2ncnc(Nc3ccc(OCc4ccccn4)c(Cl)c3)c2c1 [VIII-180] | 6 | 5 | 7.8 |  |  | 
CC#C/C(=N\OCCNCCCN1CCCC1=O)c1ccc2ncnc(Nc3ccc(OCc4cccc(F)c4)c(Cl)c3)c2c1 [VIII-50] |  | 27 |  | 15 |  | 19
CC#C/C(=N\OCCNC)c1ccc2ncnc(Nc3ccc(Oc4ccc(C)nc4)c(C)c3)c2c1 [VIII-210] | 14 | 31 | 42 |  |  | 

Structure (SMILES) | IC50 [1, 4] [nM] | IC50 ([2]; Homo sapiens, BT-474, 72 h) [nM] | IC50 [3, 4] [nM] | IC50 [1, 5] [nM] | IC50 [2] [nM] | IC50 [3, 6] [nM]
CC#C/C(=N\OCCN1CCS(=O)(=O)CC1)c1ccc2ncnc(Nc3ccc(OCc4ccccn4)c(Cl)c3)c2c1 [VIII-162] | 62 | 42 | 51 |  |  | 
CC#C/C(=N\OCCN1CCC[C@@H]1CO)c1ccc2ncnc(Nc3ccc(OCc4cccc(F)c4)c(Cl)c3)c2c1 [VIII-69] |  | 16 |  | 28 |  | 43
CC#C/C(=N\OCCCNC)c1ccc2ncnc(Nc3ccc(OCc4cccc(F)c4)c(Cl)c3)c2c1 [VIII-67] |  |  |  | 14 | 32 | 16
CC#C/C(=N\OCCNCCOC(N)=O)c1ccc2ncnc(Nc3ccc(OCc4cccc(F)c4)c(Cl)c3)c2c1 [VIII-53] |  | 12 |  | 80 |  | 79
CC#C/C(=N\OC[C@@H]1C[C@@H](O)CN1)c1ccc2ncnc(Nc3ccc(OCc4ccccn4)c(Cl)c3)c2c1 [VIII-156] | 6.4 | 24 | 7 |  |  | 
CC#C/C(=N\OC[C@@H](COC)NC)c1ccc2ncnc(Nc3ccc(OCc4cccc(F)c4)c(Cl)c3)c2c1 [VIII-56] |  |  |  | 13.8 | 14 | 7.9
CC#C/C(=N\OCCN1CC[C@@H](OC(N)=O)C1)c1ccc2ncnc(Nc3ccc(OCc4cccc(F)c4)c(Cl)c3)c2c1 [VIII-71] |  | 17 |  | 199 |  | 130
CC#C/C(=N\OC[C@@H]1CCCN1CCOC)c1ccc2ncnc(Nc3ccc(OCc4cccc(F)c4)c(Cl)c3)c2c1 [VIII-74] |  | 28 |  | 150 |  | 164
CC#C/C(=N\OCCN1CCC(O)CC1)c1ccc2ncnc(Nc3ccc(OCc4ccccn4)c(Cl)c3)c2c1 [VIII-165] | 11 | 23 | 11 |  |  | 
CC#CC(=NOC[C@@H]1CNCCO1)c1ccc2ncnc(Nc3ccc(OCc4cccc(F)c4)c(Cl)c3)c2c1 [VIII-32, 4-(3-chloro-4-(3-fluorobenzyloxy)phenylamino)-6-(1-((S)-morpholin-2-ylmethoxyimino)-2-butyn-1-yl)quinazoline dihydrochloride] |  | 32 |  | 46 |  | 50
CC#C/C(=N\OC[C@@H]1COCCN1)c1ccc2ncnc(Nc3ccc4c(cnn4Cc4cccc(F)c4)c3)c2c1 [VIII-197] | 21 | 14 | 9 |  |  | 
CC#C/C(=N\OC[C@@H]1CCCN1)c1ccc2ncnc(Nc3ccc(OCc4ccccn4)c(Cl)c3)c2c1 [VIII-153] | 11 | 21 | 10 |  |  | 
CC#C/C(=N\OCCN1CCS(=O)(=O)CC1)c1ccc2ncnc(Nc3ccc(OCc4cccc(F)c4)c(Cl)c3)c2c1 [VIII-95] |  |  |  | 176 | 25 | 209
CC#C/C(=N\OCCN)c1ccc2ncnc(Nc3ccc(OCc4cccc(F)c4)c(Cl)c3)c2c1 [VIII-42] |  |  |  | 11 | 24 | 10
CC#C/C(=N\OCCN1CC[C@@H](OC(N)=O)C1)c1ccc2ncnc(Nc3ccc4c(cnn4Cc4cccc(F)c4)c3)c2c1 [VIII-193] | 15 | 25 | 14 |  |  | 
CNCCO/N=C(\C#CCO)c1ccc2ncnc(Nc3ccc(OCc4cccc(F)c4)c(Cl)c3)c2c1 [VIII-121] |  |  |  | 18 | 10 | 17
CC#C/C(=N\OC[C@H]1CCCN1CC(=O)O)c1ccc2ncnc(Nc3ccc(OCc4cccc(F)c4)c(Cl)c3)c2c1 [VIII-88] |  |  |  | 56 | 12 | 47
CC#C/C(=N\OCCNC(C)COC)c1ccc2ncnc(Nc3ccc(OCc4ccccn4)c(Cl)c3)c2c1 (stereo not drawn) [VIII-130] | 5.2 | 50 | 8.1 |  |  | 
CC#C/C(=N\O[C@H]1CN[C@H](CO)C1)c1ccc2ncnc(Nc3ccc(OCc4ccccn4)c(Cl)c3)c2c1 [VIII-161] | 15 | 49 | 14 |  |  | 
CC#C/C(=N\OCCNCCNC(C)=O)c1ccc2ncnc(Nc3ccc(OCc4cccc(F)c4)c(Cl)c3)c2c1 [VIII-47] |  |  |  | 23 | 4 | 12
